Where two headings read alike, the source gives them in different places.

Experiment [1] relates to histamine level of the plasma. From the text:
(§1) Photographs of the ulcer and biopsies of the stomach mucosa were taken before and after each week of treatment.

For experiment [2], the system named is histamine levels in the fundus, corpus and antrum mucosa. The settings on record: 4 weeks.
From the text: as §1

For experiment [3], the system named is gastric ulcers induced in rats by immobilisation. Particulars: intraperitoneal; expressed in terms of dry (+)-catechin; immobilised 12 hours. On the procedure:
(a) on ulcers induced by stress caused by immobilization: After one week adaptation to the environment, female rats, (30 animals per group, 5 per cage), were immobilised during 12 hours by wrapping them, under narcosis with ether, in a plaster bandage.
After sacrifice of the animals, the dissected stomach was visually inspected and the lesions of the mucosa were scored according to their number and their intensity.
The products to be tested were administered, immediately before the test, by intraperitoneal injection of 2 ml of a freshly prepared saline solution. The doses tested varied from 0.1 to 50 mg/kg. The controls received 2 ml of saline.

The subject of experiment [4] is rat peritoneal mastocytes. Particulars: 10^-50 M (so in the source); 48/80 stimulated; 37° C., 10 minutes.
Another experiment has as its target T1, histidine decarboxylase (Oryctolagus cuniculus, UniProt G1TCH4).
T1 sequence (G1TCH4 1-661): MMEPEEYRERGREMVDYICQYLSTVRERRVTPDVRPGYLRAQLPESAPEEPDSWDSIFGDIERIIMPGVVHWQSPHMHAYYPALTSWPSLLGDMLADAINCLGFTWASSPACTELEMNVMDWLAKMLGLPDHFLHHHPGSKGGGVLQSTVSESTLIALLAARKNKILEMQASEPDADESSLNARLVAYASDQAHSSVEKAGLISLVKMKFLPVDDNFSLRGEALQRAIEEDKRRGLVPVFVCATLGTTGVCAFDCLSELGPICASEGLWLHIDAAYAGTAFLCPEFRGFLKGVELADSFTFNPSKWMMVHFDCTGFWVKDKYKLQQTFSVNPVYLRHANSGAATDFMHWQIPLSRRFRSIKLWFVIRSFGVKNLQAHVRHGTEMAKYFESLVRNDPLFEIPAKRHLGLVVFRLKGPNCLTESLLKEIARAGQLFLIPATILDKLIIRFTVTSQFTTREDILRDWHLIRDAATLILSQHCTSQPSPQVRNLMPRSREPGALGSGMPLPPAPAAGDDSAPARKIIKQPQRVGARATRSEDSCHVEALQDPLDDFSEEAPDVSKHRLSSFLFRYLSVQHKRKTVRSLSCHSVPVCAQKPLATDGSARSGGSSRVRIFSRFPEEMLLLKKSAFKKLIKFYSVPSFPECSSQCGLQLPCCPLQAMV
Put plainly: inhibition of histidine decarboxylase extracted from rabbit stomach, in vitro. The settings on record: read-out: IC50, inhibition of histidine decarboxylase, enzyme extracted from rabbit stomach.

Experiment [5] relates to histamine level of the mucosa of the fundus, of the corpus and of the antrum. The settings on record: 3 days, healthy persons.
The subject of experiment [6] is stress induced gastric ulcers. The settings on record: 30 mg/kg oral, 3 times a day during 3 days; immobilisation 12 hours; control group 38%. On the procedure:
The tested product was given 3 times a day during the 3 days preceding the experiment. The last administration was given 1 hour before immobilisation of the rats during 12 hours.

In experiment [7] the test system is necrosis of the gastric mucosa induced by acetic acid. Particulars: 150 mg/kg orally, twice a day during 5 days. On the procedure: In rats fasted for 24 hours, necrosis of the gastric mucosa was induced by intra-gastric administration of acetic acid (1 ml at 20%) one hour before treatment.
Accordingly the rats were sacrified, the stomach mucosa was photographed and the lesions were scored.

For experiment [8], the system named is rat peritoneal mastocytes. Particulars: 30 mg/kg per os, 3 times a day during 3 days; 0.5 μg/ml compound 48/80, 10 minutes at 37° C.
For a further experiment, the system named is leucocytes. Particulars: preincubation 10 minutes at 37° C., pollen or house dust 30 minutes. How it is done: Then the histamin level was measured in the leucocyte suspension and the supernatant liquid and compared to the values obtained from the controls.
For experiment [9], the system named is histamine level in lung tissue. The settings on record: 30 mg/kg per os, 3 times a day during 3 days; five hours after the last treatment. How it is done: The drug was administered per os as a suspension in carboxymethyl cellulose (1% in water).
Experiment [10] has as its system histamine content in the lungs. Particulars: 30 mg/kg intraperitoneal.
The test system of experiment [11] is histamine content in rat stomach mucosa. Particulars: 30 mg/kg intraperitoneal.
The test system of a further experiment is intragastric pH. The settings on record: in vivo.
From the text: as §1

The next experiment relates to human duodenal ulcer. The settings on record: after 1 month of treatment, 1500 mg daily.
From the text: as §1

The mark [12] stands for this setting: 1500 mg daily, duodenal ulcer patients.

As for `CN/C(=N/CCSCc1nc[nH]c1C)NC#N` [cimetidine, reference compound], in experiment [1] (800 mg cimetidine daily, 4 weeks), the “effect on the histamine levels in the plasma” value is reported as “no notable effect or induced an increase”. Moreover, the “increase of the histamine levels in the plasma” value in experiment [1] (in some cases, 800 mg cimetidine daily, 4 weeks) is “more than 10%”. The “effect on the histamine levels in the stomach mucosa” value in experiment [2] (800 mg cimetidine daily) was “no notable effect or induced an increase”. In addition, the “increase of the histamine levels in the stomach mucosa” value in experiment [2] (in some cases, 800 mg cimetidine daily) is recorded as “more than 10%”.
As for (+)-catechin ascorbolysinate, the “ED50 in the gastric ulcers induced in rats by immobilisation” value in [3] is 1.5 mg/kg.
As for (+)-catechin hydrochlorolysinate, the “inhibition of release of histamine from rat peritoneal mastocytes” value in experiment [4] turned out to be 27%. In addition, the IC50 on histidine decarboxylase is 100 µM. The number of mastocytes result in [5] (500, 1000 or 1500 mg per day per os, same way as the histamine level) was “decreased in the same way”. Also, in experiment [5] (highest dose (1500 mg per day), per os, dose dependent), the “decrease of the histamine level of the mucosa of the fundus, of the corpus and of the antrum” value was determined as 30%. For the same molecule, the “proportion of rats with severe lesions” value in [6] is 15%. The “ED50 in the gastric ulcers induced in rats by immobilisation” value in experiment [3] is 5 mg/kg. The “reduction of the number of animals with severe lesions” value in experiment [7] was 50%. Further, the “decrease of histamine release of the mastocytes compared to the controls” value in experiment [8] was 22%. For the same molecule, the “release inhibition, leucocytes” value with leucocytes (10^-5 M) is given as 45%. The “release inhibition, leucocytes” value with leucocytes (10^-6 M) is 45%. The “decrease of the histamine level in the homogenized lung tissue compared to the control group” value in experiment [9] was 38%. Besides, the “decrease of the histamine content in the lungs” value in [10] was 38%. Besides, the “decrease of the histamine content in rat stomach mucosa” value in experiment [11] was determined as 33%. Besides, the “effect on the intragastric pH” value in the experiment with intragastric pH is “no effect”. Further, in [1] (1500 mg daily, decreased from 0.7 (±0.3) ng/ml, observed after one week, constant during the following 3 weeks), the “mean histamine level of the plasma after treatment” value is reported as 0.3 (±0.1) ng/ml. Further, in [2] (setting [12]), the “decrease of the histamine levels in the fundus, corpus and antrum mucosa” value is approximately 20%; the “decrease of the number of mastocytes in the fundus, corpus and antrum mucosa” value is approximately 20%. Besides, the “ulcer diameter of the other (not fully recovered) patients” value in the experiment on human duodenal ulcer is listed as “decreased significantly”. In addition, in the experiment with human duodenal ulcer (out of 11), the patients fully recovered amounted to 7 patients.

The term IC50 denotes the concentration that gives 50% inhibition.

For the origin of these results see patent US4507314A, “Drug for treating affections provoked by a too high histamine level, of the gastroduodenal mucosa and allergic affections” (Midit, Societe Fiduciaire, priority 1983, dated 1985).
